# Assay results from PubChem BioAssay (NCI).
#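 Cells were grown in 96-well plates and exposed to each compound for 48 hours at five concentrations; endpoints were interpolated linearly between bracketing concentrations, or set to the highest concentration if not reached. Here, GI50 denotes the concentration required for 50% inhibition of growth. TGI: total growth inhibition.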
# How the values were obtained:
# Assay in all cases: DTP human tumour cell line panel, 48 h
# [1] = tested on: A498 renal
# [2] = tested on: CCRF-CEM leukemia
# [3] = tested on: LOX IMVI melanoma
# [4] = tested on: MALME-3M melanoma
# [5] = tested on: OVCAR-4 ovarian
# [6] = tested on: OVCAR-5 ovarian
# [7] = tested on: RXF 393 renal
# [8] = tested on: SF-268 CNS
# [9] = tested on: SF-539 CNS
# [10] = tested on: SW-620 colon
SMILES,TGI [1] [µM],TGI [2] [µM],TGI [3] [µM],TGI [4] [µM],TGI [5] [µM],TGI [6] [µM],TGI [7] [µM],TGI [8] [µM],TGI [9] [µM],TGI [10] [µM],GI50 [1] [µM],GI50 [2] [µM],GI50 [3] [µM],GI50 [4] [µM],GI50 [5] [µM],GI50 [6] [µM],GI50 [7] [µM],GI50 [8] [µM],GI50 [9] [µM],GI50 [10] [µM]
COc1ccc2oc3c4c2c1CCC4CCC3=O (centres undefined),> 100,> 100,> 100,> 100,> 100,> 100,> 100,> 100,> 100,> 100,,,,,,,,,,
COc1cc(NCCCCN=C(N)NC(N)=NC(C)C)c2ncccc2c1,> 100,27.3,15.5,4.6,2.15,> 88.3,> 100,17.9,22.2,22.2,28.5,4.57,3.68,1.14,0.0797,17.3,> 47,3.83,8.14,5.76
O=C(O)C1C(C(=O)Nc2ccc3c(c2)Cc2ccccc2-3)C2(Cl)C(Cl)=C(Cl)C1(Cl)C2(Cl)Cl (centres undefined),47.7,38,32.3,44.6,> 100,38.6,43.1,64.5,28.9,64.5,,,,,,,,,,
C=C/C=C(\NC(=O)C(Cl)(Cl)Cl)[Si](C)(C)C,> 100,> 100,> 100,> 100,> 100,> 100,> 100,> 100,> 100,> 100,,,,,,,,,,
NC(CSC(c1ccccc1)(c1ccccc1)c1ccc(Cl)cc1)C(=O)O (centres undefined),48.8,40,36.3,39.6,> 100,> 63.9,4.52,26.5,2.87,> 78.7,0.746,0.386,0.682,1.97,11.1,0.774,0.0594,0.399,0.148,0.19
CC(=O)Nc1ccc(Sc2ccc([N+](=O)[O-])o2)cc1,25,3.93,3.05,4.77,5.1,5.9,3.46,11.8,11,2.22,12.2,0.886,1.45,2.09,2.27,2.34,0.929,3.16,3.13,0.767
COc1ccc(/C(Cl)=C(\C=O)c2ccc([N+](=O)[O-])cc2)cc1OC,> 54.4,> 24.7,12.4,41,,> 100,19.2,29.4,30.8,28.1,,,,,,,,,,
C[C@]12CCC[C@H](Cl)C1(O)C[C@H](C(=O)O)CC2 (some centres undefined),> 100,> 100,> 100,> 100,> 100,> 100,> 100,> 100,> 100,> 100,,,,,,,,,,
